What was measured:
Format in all cases: cell-based
Kv1.5 = biological target: T1, Kv1.5 (Homo sapiens, UniProt P22460); assay: Kv1.5 Patch Clamp EP (whole cell patch clamp; single point at 1 μM and IC50)
T1 construct: expressed in transfected cells; host or cells: HEK or LTK- cells
Method: The external solution is standard Tyrodes solution. […] Inhibition was measured at the end of the 1 second pulses and expressed relative to controls. Initial Kv1.5 inhibition is estimated by single point determinations done at 1 μM.

HERG = biological target: T2, HERG (Homo sapiens, UniProt Q12809); assay: HERG Patch Clamp EP (whole cell patch clamp, tail currents; single point at 10 μM and IC50)
T2 construct: expressed in transfected cells; host or cells: HEK cells
T2 sequence (Q12809 whole entry): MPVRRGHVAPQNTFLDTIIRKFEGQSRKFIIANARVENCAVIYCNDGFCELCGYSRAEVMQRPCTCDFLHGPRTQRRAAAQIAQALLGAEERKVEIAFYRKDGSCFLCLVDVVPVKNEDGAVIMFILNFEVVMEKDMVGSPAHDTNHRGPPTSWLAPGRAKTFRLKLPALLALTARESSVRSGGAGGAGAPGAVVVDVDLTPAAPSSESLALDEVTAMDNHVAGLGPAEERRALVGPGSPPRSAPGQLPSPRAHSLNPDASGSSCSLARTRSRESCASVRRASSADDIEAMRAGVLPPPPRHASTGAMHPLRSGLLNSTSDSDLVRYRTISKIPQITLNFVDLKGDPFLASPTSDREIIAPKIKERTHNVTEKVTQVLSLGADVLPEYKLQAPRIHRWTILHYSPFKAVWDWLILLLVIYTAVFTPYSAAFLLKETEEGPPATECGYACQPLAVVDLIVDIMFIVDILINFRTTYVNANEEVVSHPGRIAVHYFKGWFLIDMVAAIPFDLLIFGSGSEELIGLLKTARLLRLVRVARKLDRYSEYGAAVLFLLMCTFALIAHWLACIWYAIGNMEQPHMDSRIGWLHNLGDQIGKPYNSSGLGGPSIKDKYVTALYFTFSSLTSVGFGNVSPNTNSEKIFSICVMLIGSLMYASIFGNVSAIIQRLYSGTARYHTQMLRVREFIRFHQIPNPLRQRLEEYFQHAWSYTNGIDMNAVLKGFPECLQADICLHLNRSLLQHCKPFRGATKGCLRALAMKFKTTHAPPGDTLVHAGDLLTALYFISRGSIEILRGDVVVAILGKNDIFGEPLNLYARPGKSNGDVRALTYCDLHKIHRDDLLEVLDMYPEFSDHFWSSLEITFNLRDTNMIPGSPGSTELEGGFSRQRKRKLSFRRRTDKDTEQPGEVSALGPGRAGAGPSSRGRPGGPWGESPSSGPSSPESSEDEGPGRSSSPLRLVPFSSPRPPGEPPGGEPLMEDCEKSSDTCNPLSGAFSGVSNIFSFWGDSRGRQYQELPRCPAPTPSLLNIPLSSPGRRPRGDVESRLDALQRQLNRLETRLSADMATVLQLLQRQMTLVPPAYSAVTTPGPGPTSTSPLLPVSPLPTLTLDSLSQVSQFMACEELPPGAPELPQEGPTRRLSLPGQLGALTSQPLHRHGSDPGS
Text: The external solution is standard Tyrodes solution.

L-type calcium channels = assay: FLIPR L-type Calcium Channel Assay (calcium influx in HL-1 cells after KCl); conditions: read-out: L-type Ca2+ IC50
Outline: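 HL-1 cardiomyocytes loaded with FLIPR calcium dye for 60 min at 37° C in Tyrode's pH 7.35 with 2.5 mM probenecid, then preincubated 15 min with compounds. Channels were opened by 20 mM KCl final, and fluorescence was recorded for 5 min. Influx expressed as % control gave concentration-response IC50.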

T1 sequence (P22460 whole entry): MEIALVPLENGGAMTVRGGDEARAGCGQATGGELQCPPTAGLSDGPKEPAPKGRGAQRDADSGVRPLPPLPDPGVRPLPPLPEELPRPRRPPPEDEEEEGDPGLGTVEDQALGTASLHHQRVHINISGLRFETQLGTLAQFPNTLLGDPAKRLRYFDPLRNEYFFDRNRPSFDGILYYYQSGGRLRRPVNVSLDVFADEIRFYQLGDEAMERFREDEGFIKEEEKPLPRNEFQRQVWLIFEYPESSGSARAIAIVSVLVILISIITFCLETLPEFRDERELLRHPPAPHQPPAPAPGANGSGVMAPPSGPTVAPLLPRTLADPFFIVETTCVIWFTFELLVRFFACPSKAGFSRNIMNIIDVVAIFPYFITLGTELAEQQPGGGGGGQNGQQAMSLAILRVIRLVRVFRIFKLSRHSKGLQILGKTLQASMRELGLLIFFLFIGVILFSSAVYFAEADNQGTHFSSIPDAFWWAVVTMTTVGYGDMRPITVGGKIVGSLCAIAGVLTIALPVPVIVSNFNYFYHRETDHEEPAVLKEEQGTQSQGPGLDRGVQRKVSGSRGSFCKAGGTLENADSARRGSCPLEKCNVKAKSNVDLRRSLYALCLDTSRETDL

`COc1ccc(CCN2C(=O)C3(CCN(C(N)=O)CC3)N(C)[C@H]2c2ccc(C3CC3)cc2)cc1` [Compound 99, (R)-2-(4-cyclopropylphenyl)-3-[2-(4-methoxyphenyl)ethyl]-1-methyl-4-oxo-1,3,8-triaza-spiro[4.5]decane-8-carboxylic acid amide] showed an IC50 (Kv1.5; concentration response) of 0.397 µM, an inhibition at 1 µM (Kv1.5; single point at 1.0 μM, Kv1.5 stably over expressed in HEK or LTK- cells) of 80% and an IC50 (HERG; concentration response) of 16 µM. For the same compound, the inhibition at 10 µM (HERG; human, HEK cells stably overexpressing HERG, single point at 10 μM, HERG in HEK cells, read-out: HERG % Inhib. @ 10 μM) was 24% and the IC50 (L-type calcium channels) was 24 µM.

Reference: patent publication US20070299072A1, “KV1.5 POTASSIUM CHANNEL INHIBITORS” (Wyeth, priority 2006, published 2007)
